Measured values taken from US20200262869A1, “PEPTIDE ANTIBIOTIC COMPLEXES AND METHODS OF USE THEREOF” (GENENTECH, INC., priority 2017, published 2020).
In brackets after ≈: the same amount, converted by molar mass. Like-named read-outs stand apart in the source and are kept apart here.

Columns and labels:
P. aeruginosa PAO1 = assay: Frequency of resistance (FOR); format: cell-based; details: further 2-fold increase over 8-fold the MIC (16-fold MIC)
Experimental: (§1) 20 independent colonies from each bacterial species were scraped and used to establish an overnight culture. Bacteria were concentrated by centrifugation, and approximately 3×10^9 CFUs were spread on cation adjusted Mueller Hinton agarose (MHA) plates containing G0775 at 2- to 8-times the MIC. The MHA plates were prepared from Mueller Hinton II cation adjusted broth (BBL™ 212322) and SeaKem LE Agarose (17 g/L; Lonza) as per manufactures instructions. Resistance frequency for each strain was calculated by dividing the number of colonies formed after a 48 hour incubation at 37° C. by the initial viable cell count.

E. coli ATCC 25922 [1] = assay: Frequency of resistance (FOR); format: cell-based; details: G0775 at 8-fold the MIC; limit of detection 10^−10
Experimental: as §1

K. pneumoniae 43816 = assay: Frequency of resistance (FOR); format: cell-based; details: G0775 at 8-fold the MIC; limit of detection 10^−10
Experimental: as §1

A. baumannii ATCC 17978 [2] = assay: Frequency of resistance (FOR); format: cell-based; details: G0775 at 8-fold the MIC; limit of detection 10^−10
Experimental: as §1

[3] = tested on: K. pneumoniae strain ATCC 43816; assay: Neutropenic thigh infection model in mice; format: in vivo; details: 5 mg/kg subcutaneously BID at 2 and 11 h, 20 h post infection
Experimental: (§2) CD1 mice (Charles River Laboratories) were rendered neutropenic by 2 intraperitoneal injections of Cytoxan (Baxter Health Care Corporation) at 150 mg/kg on Day -5 and 100 mg/kg on Day -2. On day 0, 50 ul log-phase grown bacteria, K. pneumoniae (ATCC 43816) 1×10^5 CFU/mouse, E. coli (ATCC 25922) 1×10^5 CFU/mouse, P. aeruginosa (ATCC 27853) 1×10^6 CFU/mouse, or A. baumannii (ATCC 17978) 1×10^5 CFU/mouse, were injected into the mouse thigh muscle. At 2 and 11 hours post infection, […] was given at indicated dose subcutaneously. At 20 hours post infection, CFU was determined in the thigh muscle through serial dilutions.

P. aeruginosa 27853 = assay: Neutropenic thigh infection model in mice; format: in vivo; details: required a higher concentration of antibiotic; subcutaneous BID
Experimental: as §2

[4] = tested on: E. coli strain ATCC 25922; assay: Neutropenic thigh infection model in mice; format: in vivo; details: 1 mg/kg subcutaneously BID at 2 and 11 h, 20 h post infection
Experimental: as §2

A. baumannii 17978 = assay: Neutropenic thigh infection model in mice; format: in vivo; details: required a higher concentration of antibiotic; subcutaneous BID
Experimental: as §2

K. pneumoniae (CDC 0106) = assay: Neutropenic lung infection model in mice; format: in vivo; details: 20 h
Experimental: Balb/c mice (Jackson Laboratories) were rendered neutropenic by 2 intraperitoneal injections of Cytoxan (Baxter Health Care Corporation) at 150 mg/kg on Day −4 and 100 mg/kg on Day −1. On day 0, mice were infected intranasally with 40 ul log-phase grown K. pneumoniae (CDC 0106) at 1×10^6 CFU/mouse. At 2 and 11 hours post infection, G0775 was given at different doses subcutaneously. Ciprofloxacin (Claris Lifesciences Inc.) was dosed at 80 mg/kg subcutaneously once at 2 hour post infection. At 20 hours post infection, CFU was determined in the lung through serial dilutions.

E. cloacae ATCC 13407 = assay: MIC, broth microdilution; format: cell-based; details: Enterobacter cloacae, ATCC13407, read-out: MIC
Experimental: (§3) Minimum Inhibitory Concentration (MIC). MICs were determined by performing two-fold serial dilutions of compound in Mueller Hinton II cation-adjusted broth to a final volume of 0.1 m1 in round-bottom 96-well assay plates (Corning Life Sciences No 3788). Each well was inoculated with 5×10^5 CFU/ml and incubated at 37° C. without agitation for 18 hours. Plates were scored by eye, and the lowest compound concentration preventing visible growth was determined to be the MIC.

E. coli ATCC 25922 [5] = assay: MIC, broth microdilution; format: cell-based
Experimental: as §3

A. baumannii ATCC 17978 [6] = assay: MIC, broth microdilution; format: cell-based; details: Acinetobacter baumannii, ATCC17978, read-out: MIC
Experimental: as §3

E. aerogenes ATCC 13408 = assay: MIC, broth microdilution; format: cell-based; details: Klebsiella aerogenes, ATCC13408, read-out: MIC
Experimental: as §3

S. marcescens CDC4385-74 = assay: MIC, broth microdilution; format: cell-based; details: Serratia marcescens, CDC438574, read-out: MIC
Experimental: as §3

C. werkmanii ATCC 51114 = assay: MIC, broth microdilution; format: cell-based; details: Citrobacter werkmanii, ATCC51114, read-out: MIC
Experimental: as §3

P. aeruginosa ATCC 27853 = assay: MIC, broth microdilution; format: cell-based; details: Pseudomonas aeruginosa, ATCC27853, read-out: MIC
Experimental: as §3

K. pneumoniae ATCC 43816 = assay: MIC, broth microdilution; format: cell-based
Experimental: as §3

[7] = tested on: E. coli K-12 MG1655 and isogenic matched strains; assay: MIC against E. coli K-12 MG1655 and isogenic matched strains; format: cell-based; details: for MIC: Escherichia coli
Experimental: as §3

[8] = tested on: E. coli ATCC 25922 point mutants; assay: MIC against spontaneous G0775-resistant point mutants; format: cell-based
Experimental: as §3, §1

## Cc1nc(-c2ccc(C(C)(C)C)cc2)ncc1C(=O)NC(CCN)C(=O)N(C)C1C(=O)NC(C)C(=O)NC(C(=O)NCC#N)Cc2ccc(OCCN)c(c2)-c2cc1ccc2OCCN (stereo not drawn) [G0775]
P. aeruginosa PAO1
  frequency of resistance (FOR): < 10^−10
E. coli ATCC 25922 [1]
  frequency of resistance (FOR): below the limit of detection
K. pneumoniae 43816
  frequency of resistance (FOR): below the limit of detection
A. baumannii ATCC 17978 [2]
  frequency of resistance (FOR): below the limit of detection
[3]
  decrease in CFU (bactericidal activity): > 2 log
P. aeruginosa 27853
  efficacy in neutropenic thigh model: efficacious
[4]
  decrease in CFU (bactericidal activity): > 2 log
A. baumannii 17978
  efficacy in neutropenic thigh model: efficacious
K. pneumoniae (CDC 0106); 2 mg/kg subcutaneously BID
  antibacterial activity in lung infection model: bacteriostatic activity
K. pneumoniae (CDC 0106); 20 mg/kg subcutaneously BID
  antibacterial activity in lung infection model: bactericidal activity
E. cloacae ATCC 13407
  MIC: 0.25 µg/mL (≈ 0.281 µM)
E. coli ATCC 25922 [5]; E. coli, more potent than arylomycin A-C16
  potency relative to arylomycin A-C16: > 500 fold
E. coli ATCC 25922 [5]; Escherichia coli, ATCC25922, E. coli ATCC 25922, read-out: MIC
  MIC: 0.125 µg/mL (≈ 0.14 µM)
A. baumannii ATCC 17978 [6]
  MIC: 1 µg/mL (≈ 1.12 µM)
E. aerogenes ATCC 13408
  MIC: 0.125 µg/mL (≈ 0.14 µM)
S. marcescens CDC4385-74
  MIC: 0.125 µg/mL (≈ 0.14 µM)
C. werkmanii ATCC 51114
  MIC: 0.125 µg/mL (≈ 0.14 µM)
P. aeruginosa ATCC 27853
  MIC: 4 µg/mL (≈ 4.49 µM)
K. pneumoniae ATCC 43816; K. pneumoniae, more potent than arylomycin A-C16
  potency relative to arylomycin A-C16: > 500 fold
K. pneumoniae ATCC 43816; Klebsiella pneumoniae, ATCC43816, K. pneumoniae ATCC 43816, read-out: MIC
  MIC: 0.125 µg/mL (≈ 0.14 µM)
[7]; MG1655, read-out: G0775 MIC, MG 1655 - LepB High, increase LepB expression level
  MIC: 1 µg/mL (≈ 1.12 µM)
[7]; MG1655, read-out: G0775 MIC, MG 1655 - LepB Low, reduced LepB expression level
  MIC: 0.008 µg/mL (≈ 0.00899 µM)
[7]; MG1655, read-out: G0775 MIC, MG 1655 LptD4213 (imp), outer-membrane permeable
  MIC: 0.004 µg/mL (≈ 0.00449 µM)
[7]; MG1655, read-out: G0775 MIC, MG1655 WT
  MIC: 0.125 µg/mL (≈ 0.14 µM)
[7]; MG1655, read-out: G0775 MIC, MG1655 WT + 4 mM EDTA, outer-membrane permeable
  MIC: 0.004 µg/mL
[7]; MG1655, read-out: G0775 MIC, MG1655 WT + 1% surfactant, lung inactivation
  MIC: 0.125 µg/mL
[7]; MG1655, read-out: G0775 MIC, MG1655 WT + 50% serum, plasma protein binding
  MIC: 0.125 µg/mL
[7]; MG1655, read-out: G0775 MIC, MG 1655 ΔacrB, efflux null
  MIC: 0.125 µg/mL (≈ 0.14 µM)
[7]; MG1655, read-out: G0775 MIC, MG 1655 ΔompC, ΔompF, doubly porin deficient
  MIC: 0.125 µg/mL (≈ 0.14 µM)
[7]; MG1655, read-out: G0775 MIC, MG 1655 ΔompC, porin deficient
  MIC: 0.125 µg/mL (≈ 0.14 µM)
[7]; MG1655, read-out: G0775 MIC, MG 1655 ΔompF, porin deficient
  MIC: 0.125 µg/mL (≈ 0.14 µM)
[7]; MG1655, read-out: G0775 MIC, MG 1655 ΔtolC, efflux null
  MIC: 0.125 µg/mL (≈ 0.14 µM)
[7]; hyper-permeable E. coli strain (imp4213)
  increase in potency relative to wild type E. coli: 30 fold
[7]; over-expression of LepB in E. coli K12 MG1655
  increase in MIC values: 8 fold
[7]; under-expression of LepB in E. coli K12 MG1655
  decrease in MIC values: 16 fold
[8]; LepB mutation A297V
  Fold MIC Increase: 4 Fold
[8]; LepB mutation D143Y
  Fold MIC Increase: 8 Fold
[8]; LepB mutation E83K
  Fold MIC Increase: 16 Fold
[8]; LepB mutation F85S
  Fold MIC Increase: 8 Fold
[8]; LepB mutation L142R
  Fold MIC Increase: 8 Fold
[8]; LepB mutation P88L
  Fold MIC Increase: 16 Fold
[8]; LepB mutation P88Q
  Fold MIC Increase: 4 Fold
[8]; LepB mutation P88R
  Fold MIC Increase: 16 Fold
[8]; LepB mutation P88T
  Fold MIC Increase: 4 Fold
[8]; LepB mutation V133F
  Fold MIC Increase: 16 Fold
[8]; LepB mutation V149(VVGLP)
  Fold MIC Increase: 128 Fold
[8]; mutation AcrB (N282Y), off-target
  Fold MIC Increase: 4 Fold
[8]; resistant E. coli mutants
  reduction of susceptibility to G0775 by resistance mutations: 4- to 16 fold
